Values after ≈ are worked out from the molar mass of the structure shown. Bridge positions count the residues as written; N and C are the ends. Square brackets hold non-standard residues; d marks the D form. Peptide text beside a SMILES is read from it. * marks the point of attachment. hPhe(3,5-F2-4-CF3) = N[C@@H](CCc1cc(F)c(C(F)(F)F)c(F)c1)C(=O)O; hPhe(3-Cl-4-CF3) = N[C@@H](CCc1ccc(C(F)(F)F)c(Cl)c1)C(=O)O; NMePhe(4-Me) = CN[C@@H](Cc1ccc(C)cc1)C(=O)O; NMeGly(cPent) = CN[C@H](C(=O)O)C1CCCC1; NMeCha = CN[C@@H](CC1CCCCC1)C(=O)O; Hyp = O=C(O)[C@@H]1C[C@@H](O)CN1; NMeI = CC[C@H](C)[C@H](NC)C(=O)O; NMeD = CN[C@@H](CC(=O)O)C(=O)O; NMeL = CN[C@@H](CC(C)C)C(=O)O; NMeA = CN[C@@H](C)C(=O)O; Piperidide = C1CCN(*)CC1; Ac5c = NC1(C(=O)O)CCCC1; Aze = O=C(O)[C@@H]1CCN1; Sar = CNCC(=O)O

Experimental findings from patent US20260273107A1, “COMPOUND PHARMACEUTICAL PREPARATION CONTAINING OIL COMPONENT COMPRISING POLYOXYETHYLENE STRUCTURE” (CHUGAI SEIYAKU KABUSHIKI KAISHA, priority 2022, published 2026) are described below.

Data set [1] in a line: Evaluation of Caco-2 membrane permeability. It counts as in vitro ADME. To be noted: human, Apical FaSSIF/HBSS pH 6.0 to Basal HBSS 4% BSA pH 7.4, 180 minutes, after 18 to 24 hours preincubation, read-out: Caco2 (Papp). The procedure:
The permeability coefficient (Caco-2 Papp (cm/sec)) is calculated using a numerical expression 1.
[formula] • where dQ/dt is the permeation rate of the drug (amount of drug appearing on the Basal side per unit time), S is the total cell surface area, and C1 (0) is the concentration of drug added on the Apical side.
Caco-2 cells were cultured on 96-well Transwell for 3 weeks, then DMEM, FaSSIF (1% DMSO), and the compound were added to the Apical side, DMEM was added to the Basal side, and the cells were preincubated under 5% CO2 at 37° C. with shaking at 80 rpm for 18 to 24 hours. After the preincubation, the preincubation solutions on the Apical side and Basal side were sucked off and washed, a FaSSIF/HBSS buffer solution (1% DMSO) (pH 6.0) containing the compound was added to the Apical side, a HBSS buffer solution (4% BSA) (pH 7.4) was added to the Basal side, and measurement of membrane permeability was started. Each well was shaken under 5% CO2 at 37° C. and 80 rpm, and at 180 minutes after the start of shaking, a sample on the Basal side was collected, and the permeation amount was measured by LC/MS. From the permeation amount, the membrane permeability coefficient (Papp) was calculated. Note that the description “Caco-2 (cm/sec)” in the column in the table herein is used synonymously with “Papp (cm/sec)”.
In general terms: Caco-2 monolayers are a common model of the intestinal barrier.

Data set [2] can be described thus: Solubility in aqueous solution containing 0.3% or 1% Cremophor EL (Example 3-3). To be noted: 25° C., 22 to 24 hours. It counts as physicochemical. How it is done:
Evaluation of the solubility of the cyclic peptide compound in the presence of a surfactant was performed. To lyophilized powder of the compound, an aqueous solution containing 0.3% or 1% Cremophor EL (CreEL) was added, and after shaking (at 25° C., 1000 rpm, for 22 to 24 hours), the mixed solution was filtered through a filter, and the compound concentration of the filtrate was measured by LC/UV. Solubility (μg/mL) was calculated from the measured compound concentration.

The nature of data set [3]: Solubility of cyclic peptide compound in 50 mM phosphate buffer solution (pH 6.5), 37° C. (Example 3-3). Conditions: shaking 22 to 24 hours, read-out: solubility in 50 mM phosphate buffer solution (PPB). It counts as physicochemical. The procedure: Evaluation of the solubility of the cyclic peptide compound was performed. To lyophilized powder of the compound, a 50 mM phosphate buffer solution (PPB: Phosphate buffer, pH 6.5) was added, and after shaking (at 37° C., 1800 rpm, for 22 to 24 hours), the mixed solution was filtered through a filter, and the compound concentration of the filtrate was measured by LC/MS/MS. Solubility was calculated from the measured compound concentration. The solubilities of the compounds 3, 4, 6, 7, and 8 were 11 μg/mL, 1 μg/mL, 1 μg/mL, 15 μg/mL, and 5 μg/mL, respectively.

[4] abbreviates: 0.3% Cremophor EL aqueous solution, read-out: solubility, 0.3% Cremophor EL.
[5] abbreviates: 1% Cremophor EL aqueous solution, read-out: solubility, 1% Cremophor EL.

The term solubility denotes the concentration that dissolves in the medium under given conditions. `CC[C@H](C)[C@@H]1NC(=O)[C@H](CC(C)C)N(C)C(=O)C[C@@H](C(=O)N2CCCCC2)N(C)C(=O)[C@H](C2CCCC2)N(C)C(=O)C2(CCCC2)NC(=O)[C@@H]2CCCN2C(=O)[C@H](CCc2ccc(C(F)(F)F)c(Cl)c2)NC(=O)CN(C)C(=O)[C@H](CC2CCCCC2)N(C)C(=O)[C@@H]2CCN2C(=O)[C@H](C)N(C)C1=O` [Compound 6] ([NMeL]I[NMeA][Aze][NMeCha][Sar][hPhe(3-Cl-4-CF3)]P[Ac5c][NMeGly(cPent)][NMeD]-Piperidide; lactam N-11): the Papp A→B at 180 min in data set [1] came to 0.61 ×10⁻⁶ cm/s. The figures for the solubility in data set [2] (setting [4]), in data set [2] (setting [5]) and in data set [3] were 434 µg/mL (≈ 298 µM), 1450 µg/mL (≈ 999 µM) and 1 µg/mL (≈ 0.688 µM), respectively.

`CC[C@H](C)[C@@H]1NC(=O)[C@H](CC(C)C)N(C)C(=O)C[C@@H](C(=O)N(C)C)N(C)C(=O)[C@H]([C@@H](C)CC)N(C)C(=O)C2(CCCC2)NC(=O)[C@@H]2CCCN2C(=O)[C@H](CCc2ccc(C(F)(F)F)c(Cl)c2)NC(=O)CN(C)C(=O)[C@H](Cc2ccc(C)cc2)N(C)C(=O)[C@@H]2CCN2C(=O)[C@H](C)N(C)C1=O` [Compound 7] ([NMeL]I[NMeA][Aze][NMePhe(4-Me)][Sar][hPhe(3-Cl-4-CF3)]P[Ac5c][NMeI][NMeD]-NMe2; lactam N-11): the Papp A→B at 180 min in data set [1] was found to be 2.96 ×10⁻⁶ cm/s. Besides, the solubility is 492 µg/mL (≈ 349 µM) in data set [2] (setting [4]), 1640 µg/mL (≈ 1170 µM) in data set [2] (setting [5]) and 15 µg/mL (≈ 10.6 µM) in data set [3].

On to `CCO[C@@H]1C[C@H]2C(=O)NC3(CCCC3)C(=O)N(C)[C@@H](C3CCCC3)C(=O)N(C)[C@H](C(=O)N(C)C)CC(=O)N(C)[C@@H](CC(C)C)C(=O)N[C@@H]([C@@H](C)CC)C(=O)N(C)[C@@H](C)C(=O)N3CC[C@H]3C(=O)N(C)[C@@H](CC3CCCCC3)C(=O)N(C)CC(=O)N[C@@H](CCc3cc(F)c(C(F)(F)F)c(F)c3)C(=O)N2C1` [Compound 8] ([NMeL]I[NMeA][Aze][NMeCha][Sar][hPhe(3,5-F2-4-CF3)][Hyp](Et)[Ac5c][NMeGly(cPent)][NMeD]-NMe2; lactam N-11), for which, in data set [1], the Papp A→B at 180 min was found to be 2.39 ×10⁻⁶ cm/s. For the same molecule, the solubility in data set [2] (setting [4]) amounted to 356 µg/mL (≈ 244 µM); in data set [2] (setting [5]), 1340 µg/mL (≈ 916 µM); in data set [3], 5 µg/mL (≈ 3.43 µM).

In the case of `CC[C@H](C)[C@@H]1NC(=O)[C@H](CC(C)C)N(C)C(=O)C[C@@H](C(=O)N2CCOCC2)N(C)C(=O)[C@H](C2CCCC2)N(C)C(=O)C2(CCCC2)NC(=O)[C@@H]2CCCN2C(=O)[C@H](CCc2ccc(C(F)(F)F)c(Cl)c2)NC(=O)CN(C)C(=O)[C@H](Cc2ccc(C(F)(F)F)cc2)N2CCCCC[C@@H](C2=O)N(C)C(=O)CN(C)C1=O` [Compound 9], the Papp A→B at 180 min in data set [1] was 0.14 ×10⁻⁶ cm/s. Moreover, the values for the solubility in data set [2] (setting [4]) and in data set [2] (setting [5]) were 450 µg/mL (≈ 291 µM) and 1510 µg/mL (≈ 978 µM), respectively.

With `CCO[C@@H]1C[C@H]2C(=O)NC3(CCC3)C(=O)N(C)[C@@H](C3CCCC3)C(=O)N(C)[C@H](C(=O)N(C)C)CC(=O)N(C)[C@@H](CC)C(=O)N[C@@H]([C@@H](C)CC)C(=O)N(C)CC(=O)N(C)[C@H]3C/C=C\CCN(C3=O)[C@@H](Cc3ccc(C(F)(F)F)cc3)C(=O)N(C)CC(=O)N[C@@H](CCc3cc(F)c(C(F)(F)F)c(F)c3)C(=O)N2C1` [Compound 10], in data set [1], the Papp A→B at 180 min turned out to be 0.7 ×10⁻⁶ cm/s. In addition, the results for the solubility in data set [2] (setting [4]) and in data set [2] (setting [5]) were 583 µg/mL (≈ 387 µM) and 1680 µg/mL (≈ 1120 µM), respectively.
